“And” between values parts separate entries of the source, which are not always exact repeats. Equal entries are not always repeated.
System: BDF1 mice, Adenocarcinoma 755 s.c., tumor weight T/C
Experiment: NCI In Vivo Anticancer Drug Screen. Data for tumor model Adenocarcinoma 755 (subcutaneous) in B6D2F1 (BDF1) mice
Conditions: endpoint: mean tumor weight, higher = larger tumour
Procedure, shortened: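 Compound activity was tested in mice carrying transplanted tumors. Survival or tumor size was measured, and each value is the treated-group measurement divided by that of the vehicle-treated control group (T/C).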

[1] = dose: 25.0 mg/kg/injection, schedule: Q01DX011 (ip), vehicle: methylcellulose (MC)
[2] = dose: 50.0 mg/kg/injection, schedule: Q01DX011 (ip), vehicle: methylcellulose (MC)
[3] = dose: 75.0 mg/kg/injection, schedule: Q01DX011 (ip), vehicle: methylcellulose (MC)
[4] = dose: 100.0 mg/kg/injection, schedule: Q01DX011 (ip), vehicle: methylcellulose (MC)
[5] = dose: 200.0 mg/kg/injection, schedule: Q01DX011 (ip), vehicle: other
[6] = dose: 31.0 mg/kg/injection, schedule: Q01DX011 (ip), vehicle: methylcellulose (MC)
[7] = dose: 125.0 mg/kg/injection, schedule: Q01DX011 (ip), vehicle: methylcellulose (MC)
[8] = dose: 250.0 mg/kg/injection, schedule: Q01DX011 (ip), vehicle: methylcellulose (MC)

With `CC(C)Cn1cnc2c(SCc3ccc(Cl)cc3Cl)nc(N)nc21` the T/C (dose: 9.0 mg/kg/injection, schedule: Q01DX011 (ip), vehicle: other) was 78 % of control, the T/C (dose: 12.5 mg/kg/injection, schedule: Q01DX011 (ip), vehicle: methylcellulose (MC)) was 41 % of control and the T/C (dose: 18.0 mg/kg/injection, schedule: Q01DX011 (ip), vehicle: other) was 78 % of control. For the same compound, the T/C [1] was 65 % of control, the T/C (dose: 37.0 mg/kg/injection, schedule: Q01DX011 (ip), vehicle: other) was 92 % of control and the T/C (dose: 38.0 mg/kg/injection, schedule: Q01DX011 (ip), vehicle: methylcellulose (MC)) was 74 % of control. The T/C [2] was 87 % of control, the T/C [3] was 113 % of control and the T/C [4] was 69 % of control. For the same compound, the T/C (dose: 150.0 mg/kg/injection, schedule: Q01DX011 (ip), vehicle: methylcellulose (MC)) was 80 % of control, the T/C [5] was 7 % of control and 15 % of control and the T/C (dose: 300.0 mg/kg/injection, schedule: Q01DX011 (ip), vehicle: methylcellulose (MC)) was 59 % of control. For the same compound, the T/C (dose: 400.0 mg/kg/injection, schedule: Q01DX011 (ip), vehicle: other) was 24 % of control and the T/C (dose: 600.0 mg/kg/injection, schedule: Q01DX011 (ip), vehicle: methylcellulose (MC)) was 91 % of control.

`Cc1ccccc1Nc1cc(Cl)nc(N)n1` was tested, and the T/C (dose: 15.0 mg/kg/injection, schedule: Q01DX011 (ip), vehicle: methylcellulose (MC)) was 73 % of control, the T/C [6] was 85 % of control and the T/C (dose: 62.0 mg/kg/injection, schedule: Q01DX011 (ip), vehicle: methylcellulose (MC)) was 75 % of control. The T/C [7] was 120 % of control and the T/C [8] was 93 % of control.

With `CCOC(=O)c1cc[c]([Sb](=[O])([OH])[OH])cc1` the T/C (dose: 12.0 mg/kg/injection, schedule: Q01DX011 (ip), vehicle: methylcellulose (MC)) was 116 % of control, the T/C (dose: 15.0 mg/kg/injection, schedule: Q01DX011 (ip), vehicle: carboxymethylcellulose (CMC)) was 70 % of control and the T/C [2] was 55 % of control. The T/C [4] was 102 % of control.

`CNc1nc(SCc2ccccc2)ncc1C` was tested, and the T/C [6] was 60 % of control, the T/C [7] was 82 % of control and the T/C [8] was 52 % of control.

In the case of `C[C@H](CCC(=O)O)[C@H]1CC[C@H]2[C@@H]3[C@H](O)C[C@@H]4C[C@H](O)CC[C@]4(C)[C@H]3C[C@H](O)[C@]12C` (tested in a mixture with another compound), the T/C (dose: 80.0 mg/kg/injection, schedule: Q01DX011 (ip), vehicle: methylcellulose (MC)) is reported as 31 % of control and 53 % of control, the T/C (dose: 160.0 mg/kg/injection, schedule: Q01DX011 (ip), vehicle: methylcellulose (MC)) is reported as 76 % of control and the T/C (dose: 320.0 mg/kg/injection, schedule: Q01DX011 (ip), vehicle: methylcellulose (MC)) is reported as 36 % of control.

For `Fc1ccc(CSc2ncnc3c2ncn3C2CCCO2)cc1` (stereo unspecified), the T/C (dose: 4.6 mg/kg/injection, schedule: Q01DX011 (ip), vehicle: methylcellulose (MC)) was 53 % of control, the T/C (dose: 9.3 mg/kg/injection, schedule: Q01DX011 (ip), vehicle: methylcellulose (MC)) was 45 % of control and the T/C (dose: 18.7 mg/kg/injection, schedule: Q01DX011 (ip), vehicle: methylcellulose (MC)) was 10 % of control. For the same compound, the T/C (dose: 37.5 mg/kg/injection, schedule: Q01DX011 (ip), vehicle: methylcellulose (MC)) was 1 % of control and 3 % of control.

With `CC(=O)OCC(=O)C1(O)C(C)CC2C3C=C(C)C4=Cc5c(cnn5-c5ccccc5)CC4(C)C3C(O)CC21C` (stereo unspecified) the T/C (dose: 0.01 mg/kg/injection, schedule: Q01DX011 (sc), vehicle: steriod suspending solution) was 74 % of control, the T/C (dose: 0.02 mg/kg/injection, schedule: Q01DX011 (sc), vehicle: steriod suspending solution) was 59 % of control and the T/C (dose: 0.05 mg/kg/injection, schedule: Q01DX011 (sc), vehicle: steriod suspending solution) was 46 % of control and 48 % of control. The T/C (dose: 0.1 mg/kg/injection, schedule: Q01DX011 (sc), vehicle: steriod suspending solution) was 19 % of control and 23 % of control, the T/C (dose: 0.2 mg/kg/injection, schedule: Q01DX011 (sc), vehicle: steriod suspending solution) was 9 % of control and 13 % of control and the T/C (dose: 1.0 mg/kg/injection, schedule: Q01DX011 (sc), vehicle: steriod suspending solution) was 14 % of control. The T/C (dose: 5.0 micrograms/kg/injection, schedule: Q01DX011 (sc), vehicle: steriod suspending solution) was 54 % of control, the T/C (dose: 10.0 micrograms/kg/injection, schedule: Q01DX011 (sc), vehicle: steriod suspending solution) was 106 % of control and the T/C (dose: 25.0 micrograms/kg/injection, schedule: Q01DX011 (sc), vehicle: steriod suspending solution) was 46 % of control.

`Nc1nc(Br)c2[nH]cnc2n1` was tested, and the T/C (dose: 60.0 mg/kg/injection, schedule: Q01DX011 (ip), vehicle: carboxymethylcellulose (CMC)) was 1 % of control.

`CC(=O)N(c1ccccc1)c1ccccc1` was tested, and the T/C (dose: 3.12 mg/kg/injection, schedule: Q01DX011 (ip), vehicle: other) was 83 % of control, the T/C (dose: 6.25 mg/kg/injection, schedule: Q01DX011 (ip), vehicle: other) was 92 % of control and the T/C (dose: 12.5 mg/kg/injection, schedule: Q01DX011 (ip), vehicle: other) was 80 % of control. For the same compound, the T/C (dose: 25.0 mg/kg/injection, schedule: Q01DX011 (ip), vehicle: other) was 97 % of control.

In the case of `CCC(C)Cn1cnc2c(SCc3ccccc3F)nc(N)nc21` (stereo unspecified), the T/C (dose: 20.0 mg/kg/injection, schedule: Q01DX011 (ip), vehicle: methylcellulose (MC)) is reported as 64 % of control, the T/C (dose: 65.0 mg/kg/injection, schedule: Q01DX011 (ip), vehicle: methylcellulose (MC)) is reported as 76 % of control and the T/C (dose: 200.0 mg/kg/injection, schedule: Q01DX011 (ip), vehicle: methylcellulose (MC)) is reported as 30 % of control.

With `OCCNc1ncnc2c1ncn2C1CCCO1` (stereo unspecified) the T/C (dose: 50.0 mg/kg/injection, schedule: Q01DX011 (ip), vehicle: saline) was 174 % of control, the T/C (dose: 100.0 mg/kg/injection, schedule: Q01DX011 (ip), vehicle: saline) was 96 % of control and the T/C (dose: 200.0 mg/kg/injection, schedule: Q01DX011 (ip), vehicle: saline) was 48 % of control.

For `Cn1cnc2c(F)ncnc21`, the T/C (dose: 8.5 mg/kg/injection, schedule: Q01DX011 (ip), vehicle: carboxymethylcellulose (CMC)) was 106 % of control, the T/C (dose: 17.0 mg/kg/injection, schedule: Q01DX011 (ip), vehicle: carboxymethylcellulose (CMC)) was 96 % of control and the T/C (dose: 34.0 mg/kg/injection, schedule: Q01DX011 (ip), vehicle: carboxymethylcellulose (CMC)) was 85 % of control. The T/C (dose: 68.0 mg/kg/injection, schedule: Q01DX011 (ip), vehicle: carboxymethylcellulose (CMC)) was 84 % of control.

`O=C(CCBr)NCCCNC(=O)CCBr` was tested, and the T/C [1] was 54 % of control and the T/C [3] was 37 % of control.

In the case of `O=S=Nc1ccccc1`, the T/C (dose: 351.0 mg/kg/injection, schedule: Q01DX011 (ip), vehicle: carboxymethylcellulose (CMC)) is reported as 64 % of control.

`C=C(Br)CN(C)CCO` was tested, and the T/C (dose: 50.0 mg/kg/injection, schedule: Q01DX011 (ip), vehicle: other) was 85 % of control, the T/C (dose: 100.0 mg/kg/injection, schedule: Q01DX011 (ip), vehicle: other) was 76 % of control and the T/C [5] was 53 % of control.

`CC(Sc1ncnc2nc[nH]c12)c1ccccc1` (stereo unspecified) was tested, and the T/C (dose: 0.37 mg/kg/injection, schedule: Q01DX011 (ip), vehicle: methylcellulose (MC)) was 60 % of control, the T/C (dose: 0.65 mg/kg/injection, schedule: Q01DX011 (ip), vehicle: methylcellulose (MC)) was 83 % of control and the T/C (dose: 1.11 mg/kg/injection, schedule: Q01DX011 (ip), vehicle: methylcellulose (MC)) was 35 % of control. For the same compound, the T/C (dose: 1.3 mg/kg/injection, schedule: Q01DX011 (ip), vehicle: methylcellulose (MC)) was 97 % of control, the T/C (dose: 2.5 mg/kg/injection, schedule: Q01DX011 (ip), vehicle: methylcellulose (MC)) was 37 % of control and the T/C (dose: 3.33 mg/kg/injection, schedule: Q01DX011 (ip), vehicle: methylcellulose (MC)) was 62 % of control. The T/C (dose: 5.0 mg/kg/injection, schedule: Q01DX011 (ip), vehicle: methylcellulose (MC)) was 12 % of control and the T/C (dose: 10.0 mg/kg/injection, schedule: Q01DX011 (ip), vehicle: methylcellulose (MC)) was 18 % of control.

For `C=CCn1cnc2c(=S)nc[nH]c21`, the T/C (dose: 0.37 mg/kg/injection, schedule: Q01DX011 (ip), vehicle: saline) was 49 % of control, the T/C (dose: 0.5 mg/kg/injection, schedule: Q01DX011 (ip), vehicle: saline) was 82 % of control and the T/C (dose: 0.75 mg/kg/injection, schedule: Q01DX011 (ip), vehicle: saline) was 72 % of control. The T/C (dose: 1.0 mg/kg/injection, schedule: Q01DX011 (ip), vehicle: saline) was 48 % of control, the T/C (dose: 2.0 mg/kg/injection, schedule: Q01DX011 (ip), vehicle: alkali diluted with saline) was 7 % of control and the T/C (dose: 2.25 mg/kg/injection, schedule: Q01DX011 (ip), vehicle: alkali diluted with saline) was 3 % of control. For the same compound, the T/C (dose: 2.75 mg/kg/injection, schedule: Q01DX011 (ip), vehicle: alkali diluted with saline) was 5 % of control, the T/C (dose: 3.0 mg/kg/injection, schedule: Q01DX011 (ip), vehicle: alkali diluted with saline) was 9 % of control and the T/C (dose: 6.0 mg/kg/injection, schedule: Q01DX011 (ip), vehicle: alkali diluted with saline) was 1 % of control. The T/C (dose: 12.5 mg/kg/injection, schedule: Q01DX011 (ip), vehicle: alkali diluted with saline) was 2 % of control.
